Results from PubChem BioAssay AID624344 (Sanford-Burnham Center for Chemical Genomics, 2012).
Calls of active or inactive are those of the source. The rule behind the calls is not given here. Square brackets hold non-standard residues; d marks the D form. Peptide text beside a SMILES is read from it. NMeY = CN[C@@H](Cc1ccc(O)cc1)C(=O)O; NMeF = CN[C@@H](Cc1ccccc1)C(=O)O; 2Abz = Nc1ccccc1C(=O)O

Tests used:
[1] = inhibitors of PAF-induced NFkB signaling in CF airway cells, dose response, cell-based, uHTS hits, panel, cytotoxicity readout (AID 624344); details: CF bronchial epithelial cells, PAF-induced NFkB reporter inhibition; with PAF, mean of runs
Cytotoxicity = test: as above; details: CF bronchial epithelial cells, mean of runs

Row | Structure (SMILES) | IC50 [1] | IC50 (Cytotoxicity)
1 | CC(=O)c1ccc(NC(=O)Nc2ccc3c(c2)N(C)C(=O)CS3)cc1 | 5.14 µM | 29.2 µM
2 | COc1cccc(-c2cc(NC=O)c3ncc(-c4ccc(C(C)=O)cc4)n3c2)c1 | 11.8 µM | 37.2 µM
3 | Cc1c(Cl)cccc1NC(=O)CSc1nc2ncc(Cl)cc2[nH]1 | 10.6 µM | 15.5 µM
4 | Cc1nc([N+](=O)[O-])c(Sc2nc3ccccc3n2C)n1Cc1ccccc1 | 4.05 µM | 13 µM
5 | Cc1c(Cl)cccc1NC(=O)COC(=O)c1c2c(nc3ccccc13)CCN(Cc1ccccc1)C2 | 6.85 µM | 13.5 µM
6 | CCCc1nnc(NC(=O)c2nc(S(=O)(=O)Cc3ccc(C)cc3)ncc2Cl)s1 | 1.23 µM | 3.08 µM
7 | CCCN(CCC)c1ncnc2nc[nH]c12 | 1.32 µM | 57.3 µM (inactive)
8 | COc1cc2c(Cc3ccccc3)cncc2cc1O | 6.42 µM | 36.8 µM
9 | Cc1ccc(-c2cc(C(=O)N/N=C/c3c(C)nn(-c4ccccc4)c3C)[nH]n2)cc1 | inactive | > 79 µM (inactive)
10 | COc1ccc(-c2cc(NC=O)c3ncc(-c4ccc(OC)c(OC)c4)n3c2)c(OC)c1 | 11.7 µM | 29.8 µM
11 | Cn1c(N2CCN(C(c3ccccc3)c3ccccc3)CC2)nc2c1c(=O)[nH]c(=O)n2C | 3.69 µM | 7.56 µM
12 | c1nc(N2CCOCC2)c2c3c(sc2n1)CCCC3 | 6.88 µM | 62.3 µM (inactive)
13 | Brc1ccc2ncnc(NCc3ccco3)c2c1 | 5.67 µM | 72.7 µM (inactive)
14 | Cc1ccnc(Nc2nc(-c3sc(C)nc3C)cs2)c1 | 5.11 µM | 16.6 µM
15 | COc1ccc(C(=O)N[C@H](C(=O)Nc2nc3ccccc3[nH]2)C(C)C)cc1 | 14.6 µM | > 79 µM (inactive)
16 | COc1cc(O)cc2cc3c(c(O)c12)C(=O)CC(C)(O)O3 (stereo not given) | 4.17 µM | 45.5 µM
17 | CC1(O)CC(c2ccc(Cl)cc2)=NN1C(=O)c1ccc(Cl)cc1 (stereo not given) | 5.49 µM | 14 µM
18 | COc1cc(NC(=O)c2csc(-c3ccncc3)n2)cc(C(=O)Nc2cccc(C(F)(F)F)c2)c1 | 4.32 µM | 46 µM
19 | C[C@@H]1C[C@@H]([C@H](O)CC2CC(=O)NC(=O)C2)C(=O)[C@@H](C)C1 | 0.46 µM | 11.6 µM
20 | COc1cc2c(c(OC)c1OC)-c1ccc(NCc3ccccc3)c(=O)cc1C(NC(C)=O)CC2 (stereo not given) | 15.5 µM | 45.8 µM
21 | O=C(Nc1nnc(S(=O)(=O)N2CCCCCC2)s1)c1cccc(Br)c1 | 2.68 µM | 7.27 µM
22 | CN(C)C=Nc1c(C(=O)c2ccccc2)sc2nccc(N(C)C)c12 | 10.9 µM | > 79 µM (inactive)
23 | O=C(NC1CCCC(C(F)(F)F)C1)c1ccc([N+](=O)[O-])o1 (stereo not given) | 3.87 µM | 11 µM
24 | CCC1=Nc2cc(C(=O)NCc3ccco3)ccc2Sc2ccc(C)cc21 | 11.7 µM | 57.9 µM (inactive)
25 | COc1cccc(Nc2ncnc3ccc(Br)cc23)c1 | 1.08 µM | 9.61 µM
26 | COc1cccc(-c2ccc3ncnc(NCc4ccc5c(c4)OCO5)c3c2)c1 | 1.61 µM | 18.1 µM
27 | COc1ccc(OC)c(-c2nnc3n2N=C(c2ccc(OC)c(OC4CCCC4)c2)CS3)c1 | 6.47 µM | > 79 µM (inactive)

Row | Structure (SMILES) | IC50 [1] | IC50 (Cytotoxicity)
28 | C=C(C)[C@@H]1CCC2(C(=O)O)CC[C@]3(C)[C@H](CC[C@@H]4[C@@]5(C)CCC(=O)C(C)(C)[C@@H]5CC[C@]43C)[C@@H]12 (stereo not given in full) | 8.27 µM | 12.9 µM
29 | Cc1ccc(-n2nnnc2Sc2ccc(S(=O)(=O)NCCN(C)C)cc2[N+](=O)[O-])cc1 | 2.65 µM | 1.99 µM
30 | Cc1c(O)ccc2c(-c3ccccc3)cc(=O)oc12 | 3.98 µM | 70.9 µM (inactive)
31 | COc1ccc2[nH]c(=O)c(CN(Cc3cccnc3)S(=O)(=O)c3ccccc3F)cc2c1 | 2.1 µM | 3.68 µM
32 | O=C(NCc1nc(-c2ccc(C(F)(F)F)cc2)no1)Nc1cc(Cl)cc(Cl)c1 | 5.81 µM | 5.56 µM
33 | COc1ccc(C(C(=O)NCC2CCCO2)N(Cc2cccs2)C(=O)c2snc(C(N)=O)c2N)cc1 (stereo not given) | 3.11 µM | 44.2 µM
34 | CC1CCN(CC(CS(=O)(=O)c2ccc([N+](=O)[O-])cc2)N2CCC(C)CC2)CC1 (stereo not given) | 2.44 µM | 3.57 µM
35 | C=C1C(=O)OC2CC3(C)OC3CCC(C)=CC(OC(C)=O)C12 (stereo not given) | 2.27 µM | 2.35 µM
36 | Cc1cc(N2C(=O)C(O)=C(C(=O)c3ccc(C)o3)C2c2cccc(Oc3ccccc3)c2)no1 (stereo not given) | 10.6 µM | 41.7 µM
37 | COC(=O)c1ccc(-c2ccc(OC)c([C@H]3[C@H]4C=CC[C@@H](C)[C@@H]4C(=O)N3Cc3ccccc3)c2)cc1 | 2.4 µM | 29.8 µM
38 | CC(=O)c1c(C)n(-c2ccc(C)cc2C)c2ccc(O)cc12 | 12.7 µM | > 79 µM (inactive)
39 | COc1ccc(-n2nnnc2S(=O)(=O)Cc2ccc(C(=O)O)cc2)cc1 | 1.05 µM | 3.16 µM
40 | O=[N+]([O-])c1ccc(O)c(C2CCCCC2)c1 | 2.04 µM | 3.28 µM
41 | O=C(NCc1cccnc1)/C(=C\c1ccc(-c2cccc(Cl)c2)o1)S(=O)(=O)c1ccccc1 | 1.71 µM | 5.33 µM
42 | Cc1ccnc(NC(=O)Cc2ccc(-c3ccccc3)cc2)c1 | 9.06 µM | 47.8 µM
43 | COc1cccc2c(SCC(=O)N/N=C/c3ccccc3)cc(C)nc12 | 6.95 µM | 38.6 µM
44 | COc1nc(N)c(C#N)c(-c2ccc(N(C)CCC#N)cc2)c1C#N | 3.31 µM | > 79 µM (inactive)
45 | N#CC1c2ccccc2-n2nncc2CN1Cc1cc(Cl)cc(Cl)c1 (stereo not given) | 2.16 µM | 1.6 µM
46 | COc1cc(NC(=O)Cn2ncc(Cl)c(Cl)c2=O)c(C)cc1[N+](=O)[O-] | 3.31 µM | 3.15 µM
47 | c1cncc(CNc2ncnc3ccc(-c4ccoc4)cc23)c1 | 1.39 µM | 50.1 µM (inactive)
48 | COc1ccc(-c2cn[nH]c2-c2ccc(OCc3ccccc3)cc2O)cc1 | 3.7 µM | 16.7 µM
49 | FC(F)Sc1ccc(NC(=S)NC(c2ccccc2)c2ccccc2)cc1 | 6.53 µM | 9.19 µM
50 | Oc1ccc(Cl)cc1Cc1cc(Cl)ccc1O | 6.19 µM | 25.2 µM
51 | COc1ccc2cc3c(N)nn(C(=O)c4ccccc4[N+](=O)[O-])c3nc2c1 | 0.54 µM | 40.2 µM
52 | Fc1ccccc1-c1csc(=Nc2cccnc2)n1CCCn1ccnc1 | 5.92 µM | 48.4 µM
53 | Cc1ccc(S(=O)(=O)N2[C@@H](c3ccc(C(C)(C)C)cc3)C(C(=O)O)=CC[C@H]2c2ccc(C(C)C)cc2)cc1 | 12.9 µM | 55.7 µM (inactive)
54 | CCC(=NCCc1c(C)[nH]c2ccc(C)cc12)C1=C(O)CC(c2ccccc2)CC1=O (stereo not given) | 7.89 µM | > 79 µM (inactive)

Row | Structure (SMILES) | IC50 [1] | IC50 (Cytotoxicity)
55 | Cc1ccccc1S(=O)(=O)Cc1ccc(C(=O)N2CCN(c3cccc(C)c3C)CC2)o1 | 11 µM | 25 µM
56 | C=C(C)[C@@H]1CC[C@]2(C(=O)O)CC[C@]3(C)[C@H](CC[C@@H]4[C@@]5(C)CC[C@H](O)C(C)(C)[C@@H]5CC[C@]43C)[C@@H]12 | inactive | 42.2 µM
57 | CC(C)C[C@@H]1NC(=O)[C@H](Cc2ccccc2)N(C)C(=O)[C@H](C)NC(=O)c2ccccc2NC(=O)[C@H](Cc2ccc(O)cc2)N(C)C1=O (cyclo([2Abz]A[NMeF]L[NMeY])) | 3.42 µM | 6.59 µM
58 | O=C(CC12CC3CC(CC(C3)C1)C2)Nc1nncs1 | inactive | 54.5 µM (inactive)
59 | COc1ccc(/C=N/Nc2nc(-c3cccnc3)nc3ccccc23)cc1OC | 3 µM | 8.04 µM
60 | Cn1c(=O)c2c(nc(Oc3ccc4ccccc4c3)n2C)n(C)c1=O | 9.64 µM | > 79 µM (inactive)
61 | Cc1ccc2c(c1)C(=O)C(=O)N2Cc1ccc(Br)cc1 | 19.1 µM | > 79 µM (inactive)
62 | Cc1ccccc1C(=O)N1CCN(c2ccc(NC(=O)CSc3ccc(Cl)cc3)cc2)CC1 | 0.879 µM | > 79 µM (inactive)
63 | COc1ccc(C[C@H]2NC[C@H](O)[C@H]2OC(C)=O)cc1 | 0.155 µM | 0.799 µM
64 | NC(=Nc1ccccc1)NN=Cc1c[nH]c2ccccc12 | inactive | 23.3 µM
65 | CCOC(=O)C1=C(CC)Nc2ccccc2N=C1NC(=O)Nc1ccc(Cl)c(Cl)c1 | 2.74 µM | 6.06 µM
66 | COc1ccc(-c2csc3ncnc(NCCN4CCOCC4)c23)cc1 | 3.79 µM | 47 µM
67 | O=C(NCCc1ccccc1)c1coc(=O)c(Br)c1 | 4.91 µM | 11.5 µM
68 | CNc1ccc2ncc(-c3cccc(C(=O)N(C)C)c3)n2n1 | 0.169 µM | 53.7 µM (inactive)
69 | COc1cc2c(c(OC)c1O)-c1ccc(OC)c(=O)cc1C(NC(=O)C(F)(F)F)CC2 (stereo not given) | > 79 µM (inactive) | > 79 µM (inactive)
70 | CCOC(=O)c1c(C)c2c(=O)[nH]cnc2n1-c1ccccc1 | 1.89 µM | 13.9 µM
71 | Cc1ccc(NC(=O)CSc2ncnc3ccccc23)cc1S(=O)(=O)N1CCOCC1 | 4.14 µM | 34.6 µM
72 | Clc1cccc(Nc2ncnc3ccc(Br)cc23)c1 | 3.53 µM | 15.1 µM
73 | COc1ccc(OC)c(-c2nnc3n2N=C(c2ccc(OC)c(OC4CCOC4)c2)CS3)c1 (stereo not given) | 1.71 µM | > 79 µM (inactive)
74 | Cc1cccc(C(=O)N[C@H](C(=O)Nc2nc3ccccc3[nH]2)C(C)C)c1 | 14.9 µM | 19.6 µM
75 | C=CCc1cc(S(=O)(=O)c2ccc(O)c(CC=C)c2)ccc1O | 6.34 µM | 56.8 µM (inactive)
76 | CCOC(=O)COc1ccc2ccccc2c1/C=C/[N+](=O)[O-] | 8.1 µM | 4.6 µM
77 | O=C(NCCCSc1ccccc1)c1cc(Br)ccc1O | 4.8 µM | 3.05 µM
78 | Cc1ccc(S(=O)(=O)Nc2ccc3cc([N+](=O)[O-])ccc3c2[N+](=O)[O-])cc1 | 3.17 µM | 4.15 µM
79 | CNC(=O)COC(=O)c1ccccc1C(=O)c1ccc(Cl)c([N+](=O)[O-])c1 | 1.01 µM | 3.7 µM
80 | CCOC(=O)C1=C(CC)Nc2ccccc2N=C1NC(=O)c1oc2ccccc2c1C | 4.43 µM | 6.1 µM
